Entries after “also recorded” stand apart in the source; their conditions may differ. Where two headings read alike, the source gives them in different places.

Data on one compound can be found in US12017975B2, “Myc-Max inhibitor compound therapeutics for cancer treatment, methods and uses associated therewith” (THE UNIVERSITY OF BRITISH COLUMBIA, priority 2018, dated 2024).

The test system of data set [1] is Myc-Max transcriptional activity. Kind of data set: Cignal c-Myc luciferase reporter assay in LNCaP cells. Format: cell-based. The conditions noted are these: Homo sapiens. An outline of the steps:
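Transiently transfected Myc-driven luciferase reporter in LNCaP cells, 10000 cells/well, treated 1 day with compound at the indicated concentrations; luminescence read-out of Myc-regulated signal.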

The test system of data set [2] is Myc-Max/UBE2C downstream pathway. Description: UBE2C promoter luciferase reporter assay in 22rv1 cells. It counts as cell-based. As for the experimental part: Cell transfection was performed using TransIT-2020™ transfection reagents according to the manufacturer's instructions (Mirus™). LNCaP cells were plated at 10000 cells per well and treated for 1 day with the indicated concentration of compound. Myc reporter activity was measured using the Cignal Myc Reporter Assay Kit™ from Qiagen™ (#336841) according to the manufacturer's instructions. For the UBE2C reporter assay, 22rv1 cells were plated at 10000 cells per well in 96-well plates in RPMI media supplemented with 5% charcoal-stripped serum (CSS) and treated for 1 day with 1 μM, 10 μM and 25 μM of compound.
Myc inhibition was recently reported to reduce levels of the constitutively active androgen receptor splice variant AR-V7 in 22rv1 cells. […] The dose-dependent reduction of luciferase levels by the identified hits indicates a Myc-related reduction of AR-V7 level in the cells (see TABLE 1). […] The AR-V7 reduction with the hits was confirmed by Western blot (FIG. 2B).
Background: In a reporter assay the amount or activity of a reporter protein is the signal.

In data set [3] the test system is LNCaP cells. Description: LNCaP cell viability (PrestoBlue). It counts as cell-based. The conditions noted are these: Homo sapiens. As for the experimental part:
(§1) LNCaP were plated at 5000 cells per well in RPMI 1640 containing 5% CSS in a 96-well plate, treated with test compounds (0-25 μM) for 96 hours. Cell density was measured using the PrestoBlue™ assay according to the manufacturer's protocol. The percentage of cell survival was normalized to the cell density of control wells treated by vehicle. Viability of Myc-negative […] cells was done similarly but in DMEM supplemented with 5% CSS.
(§2) The effect of hit compounds on Myc-driven cell proliferation was evaluated by measuring the cell viability of LNCaP cells after treatment with increasing concentrations of compounds.

Data set [4] in a line: Cell viability of Myc negative (c-Myc knockout) HO15.19 cells. Format: cell-based. The conditions noted are these: rat, HO15.19 cells (c-Myc knockout, Myc-negative); 25 μM; read-out: % inhibition of Myc negative HO15.19 cells (cytotoxicity). As for the experimental part: as §1, §2
The subject of data set [5] is HO15.19 cells. Described as above. It counts as cell-based. As for the experimental part: as §1, §2
Data set [6] relates to LNCaP cells. Description: PARP cleavage (apoptosis) by Western blot in LNCaP cells. It counts as cell-based. As for the experimental part: After 48 hours of treatment with Myc compounds, LNCaP cells were lysed, and protein sample preparation followed by Western blotting were performed. Blots were incubated with primary antibodies against c-Myc, PARP (Sigma™ 084M4766V), PARP cleaved-Asp214 (Sigma™ SAB4500487) and β-Actin (Sigma™ A2066) overnight at 4° C., followed by appropriate peroxidase-conjugated secondary antibodies. β-actin served as an internal control. Visualization of the immunocomplexes was done by an enhanced chemiluminescence detection system (Millipore™) followed by exposure to X-ray films.
Apoptosis. Myc inhibition induces cell death by cell cycle arrest and apoptosis. Cleavage of PARP-1 by caspases is considered a hallmark of apoptosis and so we measured the ability of compounds to induce PARP cleavage after treatment.

Data set [7] deals with T1, Myc-Max complex (Homo sapiens, UniProt P01106+P61244).
T1 construct: GST tagged Myc (residues 368-454); Histidine tagged Max (residues 23-102); made in house; host or cells: E. coli BL21-DE3
T1 sequence (P01106 368-454): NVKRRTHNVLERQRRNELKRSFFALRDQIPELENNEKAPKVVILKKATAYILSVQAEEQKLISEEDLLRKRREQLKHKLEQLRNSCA
T1 sequence (P61244 23-102): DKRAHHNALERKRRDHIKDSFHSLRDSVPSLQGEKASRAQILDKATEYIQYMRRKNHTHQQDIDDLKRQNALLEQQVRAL
Kind of data set: Biolayer interferometry of Myc-Max binding to biotinylated E-box DNA. As for the experimental part: Histidine tagged Max (residues 23-102) and GST tagged Myc (residues 368-454) were overexpressed in E. coli BL21-DE3 cells. Cells were co-lyzed in lysis buffer (20 mM Tris pH 8, 500 mM NaCl, 5% glycerol, 10 mM imidazole, 8 mM BME, 2.1 mM PMSF). After sonication and centrifugation, the complex was first purified by using a Ni-NTA affinity resin. After overnight dialysis to remove the imidazole, the protein sample was applied to a size exclusion chromatography equilibrated with (20 mM Tris pH 8, 150 mM NaCl, 5% glycerol, 0.2 mM TCEP). Fractions containing equal amount of Myc and Max on SDS PAGE were collected and used for the binding assay. The presence of both proteins was validated by Western blot using a specific antibody of each protein (Max (h2) Sc-8011 and c-Myc (9E10) Sc-40, Santa Cruz Biotechnology™)
The direct interaction between biotinylated E-box oligo ([…]) immobilized on a streptavidin biosensor and a purified Myc-Max complex (0.05 mg/ml) was quantified by BLI using OctetRED (ForteBio™). The DNA was first bound to the super-streptavidin sensors over 1000 sec at 25° C. The sensors were next moved into wells containing the reaction buffer (20 mM Tris pH 8, 150 mM NaCl, 5% glycerol, 0.2 mM TCEP, 5% dimethylsulfoxide) for measuring the baseline and next into the Myc-Max complex alone or in presence of the tested inhibitors to study the association of the complex to the DNA.
Direct Binding and disruption of protein-DNA interaction. To study the direct effect of our hit compounds VPC-70063 and VPC-70067 on the interaction between Myc-Max heterodimer and the DNA, we used Bio-Layer Interferometry (BLI, ForteBio™). This technique is a label-free technology allowing the measurement of direct interactions between two partners, one immobilized on a sensor and the other one present in a solution. We applied this technology to study the disruption of the interaction between a biotinylated E-box oligo immobilized on a streptavidin biosensor and a purified Myc-Max complex in presence of our compounds. Therefore, histidine-tagged Max (residues 23-102) and GST tagged Myc (residues 368-454) were overexpressed and co-purified. The fraction containing equal amount of Myc and Max was collected and used for the binding assay (FIG. 3B). The presence of both proteins was validated by Western blot using a specific antibody of each protein. […] Additionally, we tested the ability of our best compound VPC-70063 to disrupt the interaction of MYC/MAX with DNA in a dose dependent manner.
A general note: Biolayer interferometry detects binding as a change in optical thickness at a sensor tip.

Data set [8] has as its target T2, Myc-Max interaction (Homo sapiens, UniProt P01106).
T2 construct: expressed in transfected cells; host or cells: PC3 cells
Kind of data set: Mammalian two-hybrid assay in PC3 cells. It counts as cell-based. Conditions: various concentrations. As for the experimental part: Full lengths Myc and Max were cloned in pBIND and pACT plasmids (CheckMate™, Promega™), respectively. PC3 cells in RPMI 1640 supplemented with 5% FBS were seeded in 96-well plates at 5,000 cells/well. After 24 hours, cells were transfected with 15 ng of pACT-Max, 19.5 ng of pBIND-Myc, and 13.6 ng of the reporter plasmid PG5-luciferase. After 24 hours, cells were treated with various concentrations of the tested inhibitors. Cells were lysed the next day, and the luminescence signal was measured after adding 50 μL of luciferase assay reagent (Promega™). Each measurement was done in 4 replicates with biological replicates of 3. Luciferase levels corresponding to Myc-Max interactions were measured and normalized to a control provided by the commercial kit to discard non-specific effect due to toxicity or direct luciferase inhibition.
The effect of inhibitors of Myc-Max interaction was studied by using a mammalian two hybrid assay. Full lengths Myc and Max were cloned in pBIND and pACT plasmids (CheckMate™, Promega™), respectively. Luciferase levels corresponding to Myc-Max interactions were measured and normalized to a control provided by the commercial kit to discard non-specific effect due to toxicity or direct luciferase inhibition.

T2 sequence (P01106 whole entry): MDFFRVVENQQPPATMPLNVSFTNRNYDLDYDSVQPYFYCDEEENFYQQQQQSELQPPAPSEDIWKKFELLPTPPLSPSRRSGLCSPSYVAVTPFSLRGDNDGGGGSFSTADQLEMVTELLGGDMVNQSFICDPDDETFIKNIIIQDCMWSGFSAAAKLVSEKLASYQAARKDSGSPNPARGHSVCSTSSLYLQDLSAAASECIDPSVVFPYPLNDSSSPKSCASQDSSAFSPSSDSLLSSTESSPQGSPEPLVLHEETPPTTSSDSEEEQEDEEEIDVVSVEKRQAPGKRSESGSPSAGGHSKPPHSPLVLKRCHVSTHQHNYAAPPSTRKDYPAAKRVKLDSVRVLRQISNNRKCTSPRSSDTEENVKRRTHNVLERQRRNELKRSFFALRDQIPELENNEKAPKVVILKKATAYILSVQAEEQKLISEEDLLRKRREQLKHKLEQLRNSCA

For the compound `FC(F)(F)c1cc(NC(=S)NCc2ccccc2)cc(C(F)(F)F)c1` [VPC-70063, 1-benzyl-3-(3,5-bis(trifluoromethyl)phenyl)thiourea], the inhibition at 25 µM in data set [1] (LNCaP, TABLE 3, read-out: % Inhibition 25 μM) was found to be 106%; in data set [1] (LNCaP, 24 h, LNCaP cells, TABLE 1, read-out: Myc-Max transcriptional activity % inhibition (25 μM)), 106%; in data set [2] (Homo sapiens, 25 μM) it was 94%. Moreover, the IC50 in data set [1] (LNCaP, TABLE 2, assay not named, values match Myc-Max transcriptional activity, read-out: IC50) is 9 µM; in data set [1] (LNCaP cells, dose response, Cignal c-Myc kit, read-out: IC50 Myc-Max transcriptional activity), 8.9 µM; in data set [3] (96 hours, 0-25 μM, read-out: IC50 LNCaP cell proliferation / viability), 2.5 µM. Also, the “reduction of UBE2C promotor activity” value in data set [2] is given as “highest reduction of UBE2C promotor activity”. In addition, the inhibition at 3 µM in data set [3] (3 μM, read-out: % of LNCaP cells inhibited) stood at 70%. Also, the inhibition at 96 h, 25 µM in data set [4] worked out at 40%. In addition, in data set [5] (3 μM), the “effect on c-Myc knockout cells” value is given as “no significant effect”. Also, in data set [5] (Rattus norvegicus, HO15.19, 2.5 μM (IC50 in LNCaP cells)), the inhibition at 2.5 µM was roughly 7%. In data set [5] (Rattus norvegicus, HO15.19, read-out: % inhibition Myc K.O cells (12 uM)), the inhibition at 12 µM came to 35%. For the same compound, the “PARP cleavage / apoptosis” value in data set [6] (LNCaP cells, Western blot) is recorded as “inducing PARP cleavage; also recorded: induces apoptosis”. Moreover, the PARP effect entry in data set [6] (TABLE 2, LNCaP cells) is listed as “strong”. In data set [7] (500 μM compound (FIG. 3C)), the “Myc-Max interaction with immobilized E-box DNA” value is on record as “prevented from interacting with the immobilized DNA”. In data set [7] (TABLE 2), the BLI binding result is “strong”. Besides, the “effect on Myc-Max/DNA complex dissociation” value in data set [7] (concentration below 100 μM) is on record as “did not see any significant effect”. Also, in data set [7] (concentration higher than 100 μM), the “MYC/MAX binding to DNA” value was “dose response decrease of the MYC/MAX binding to DNA”. In data set [8], the “effect on Myc-Max interaction” value was “dose response inhibition of the interaction between the two proteins”.
